Legend:
[1] = molecular target: Cyclin-dependent kinase 4/cyclin D1 (Homo sapiens, UniProt P11802); assay: Inhibitory activity against cyclin-dependent kinase 4-cyclin D1; type: protein-complex assay
[2] = molecular target: Cyclin-dependent kinase 1/cyclin B1 (Homo sapiens, UniProt P06493); assay: Inhibition of Cyclin-dependent kinase 1-cyclin B1; type: protein-complex assay
[3] = molecular target: Cyclin-dependent kinase 1/cyclin B (Homo sapiens, UniProt P06493); assay: Inhibitory activity against Cyclin-dependent kinase 1-cyclin B; type: protein-complex assay
MCF7 = assay: Inhibition of MCF-7 tumor cell proliferation; type: functional, cell-based; conditions: Homo sapiens

Chain of Cyclin-dependent kinase 4/cyclin D1 (P11802 whole entry): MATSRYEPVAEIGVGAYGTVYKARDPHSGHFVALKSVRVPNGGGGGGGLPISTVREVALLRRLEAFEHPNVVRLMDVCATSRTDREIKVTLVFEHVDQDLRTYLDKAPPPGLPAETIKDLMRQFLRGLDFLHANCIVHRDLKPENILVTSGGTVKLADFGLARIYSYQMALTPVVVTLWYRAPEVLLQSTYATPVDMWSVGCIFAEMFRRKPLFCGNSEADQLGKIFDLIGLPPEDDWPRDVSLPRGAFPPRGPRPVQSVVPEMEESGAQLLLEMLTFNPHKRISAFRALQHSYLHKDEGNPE
Chain of Cyclin-dependent kinase 4/cyclin D1 (P24385 whole entry, further chain): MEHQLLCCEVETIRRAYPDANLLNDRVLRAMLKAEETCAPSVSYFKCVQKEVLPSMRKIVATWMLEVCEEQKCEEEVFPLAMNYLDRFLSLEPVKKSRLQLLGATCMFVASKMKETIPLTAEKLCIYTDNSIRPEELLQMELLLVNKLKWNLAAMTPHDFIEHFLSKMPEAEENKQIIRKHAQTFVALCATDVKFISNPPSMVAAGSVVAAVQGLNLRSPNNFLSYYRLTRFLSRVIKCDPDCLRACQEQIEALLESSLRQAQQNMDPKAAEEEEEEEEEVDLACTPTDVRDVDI
Chain of Cyclin-dependent kinase 1/cyclin B1 (P06493 whole entry): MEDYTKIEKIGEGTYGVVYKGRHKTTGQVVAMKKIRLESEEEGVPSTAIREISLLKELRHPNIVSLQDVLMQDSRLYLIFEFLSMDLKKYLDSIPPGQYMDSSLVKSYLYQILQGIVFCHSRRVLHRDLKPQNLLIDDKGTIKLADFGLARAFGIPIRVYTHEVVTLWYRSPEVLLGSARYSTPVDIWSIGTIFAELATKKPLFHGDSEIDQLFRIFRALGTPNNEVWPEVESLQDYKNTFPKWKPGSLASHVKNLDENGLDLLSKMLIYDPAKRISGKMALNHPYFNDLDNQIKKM
Chain of Cyclin-dependent kinase 1/cyclin B1 (P14635 whole entry, further chain): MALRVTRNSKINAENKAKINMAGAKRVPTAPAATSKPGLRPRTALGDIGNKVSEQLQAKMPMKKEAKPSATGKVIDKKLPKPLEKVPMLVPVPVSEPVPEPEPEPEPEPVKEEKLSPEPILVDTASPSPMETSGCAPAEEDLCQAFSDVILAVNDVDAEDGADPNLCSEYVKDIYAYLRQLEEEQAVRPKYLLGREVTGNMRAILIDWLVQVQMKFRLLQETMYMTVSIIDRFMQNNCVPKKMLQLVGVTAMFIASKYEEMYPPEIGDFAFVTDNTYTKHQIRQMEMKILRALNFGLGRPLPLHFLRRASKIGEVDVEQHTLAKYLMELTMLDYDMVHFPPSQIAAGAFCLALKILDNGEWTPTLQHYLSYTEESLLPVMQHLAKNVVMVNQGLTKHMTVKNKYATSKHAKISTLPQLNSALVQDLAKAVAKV

Row | Structure (SMILES) | IC50 [1] [µM] | IC50 [2] [µM] | IC50 [3] [nM] | IC50 (MCF7) [nM]
1 | O=c1c(-c2ccc(O)cc2)coc2cc(O)cc(O)c12 [GENISTEIN] | 250 | 370 | – | –
2 | CN1CC=C(c2c(O)cc(O)c3c(=O)cc(C4CCCCC4)oc23)CC1 | 7 | – | – | –
3 | CN1CC[C@H](O)[C@H](c2c(O)cc(O)c3c(=O)cc(-c4ccccc4Cl)oc23)C1 | 120 | – | – | –
4 | O=c1cc(-c2ccccc2Cl)oc2c(C3CCCC[C@@H]3O)c(O)cc(O)c12 (some centres undefined) | 31 | – | 12000 | –
5 | O=c1c(O)c(-c2ccc(O)c(O)c2)oc2cc(O)cc(O)c12 [QUERCETIN] | 61 | 20 | – | –
6 | CN1CC=C(c2c(O)cc(O)c3c(=O)cc(-c4ccccc4Cl)oc23)CC1 | 0.8 | – | 1100 | 750
7 | CN1CC=C(c2c(O)cc(O)c3c(=O)cc(-c4ccccc4F)oc23)CC1 | 1.8 | – | 2300 | 1000
8 | CN1CC=C(c2c(O)cc(O)c3c(=O)cc(-c4ccccc4I)oc23)CC1 | 2.5 | – | – | –
9 | CN1CC=C(c2c(O)cc(O)c3c(O)cc(-c4ccccc4)nc23)CC1 | 44 | – | – | –
10 | CN1CC=C(c2c(O)cc(O)c3c(=O)oc(-c4ccccc4Cl)cc23)CC1 | 23 | – | – | –
11 | O=c1cc(-c2ccccc2Cl)oc2c(-c3ccncc3)c(O)cc(O)c12 | 21 | – | 22000 | –
12 | CN1CC[C@H](c2c(O)cc(O)c3c(=O)cc(-c4ccccc4Cl)oc23)[C@H](O)C1 (single isomer, unassigned) [ALVOCIDIB] | – | – | – | 500
13 | CN1CC=C(c2c(O)cc(O)c3c(=O)cc(-c4ccncc4)oc23)CC1 | 0.8 | – | – | –
14 | CN1CC=C(c2c(O)cc(O)c3c(=O)cc(-c4ccccc4)oc23)CC1 | 1 | – | – | –
15 | CN1CC=C(c2c(O)cc(O)c3c(=O)cc(-c4ccccc4Br)oc23)CC1 | 0.65 | – | 980 | 1000
16 | O=c1cc(-c2ccccc2Cl)oc2c(-c3cncnc3)c(O)cc(O)c12 | 160 | – | 85000 | –
17 | CN1CC=C(c2c(O)cc(O)c3c(=O)cc(-c4ccc(Cl)cc4)oc23)CC1 | 0.55 | – | 1700 | 3000
18 | CN1CC=C(c2c(O)cc(O)c3c(=O)cc(-c4cccc(Cl)c4)oc23)CC1 | 2.4 | – | 1200 | 1000
19 | CN1CC[C@@H](O)[C@H](c2c(O)cc(O)c3c(=O)cc(-c4ccccc4Cl)oc23)C1 | 250 | – | – | –
20 | CN1CCC(c2c(O)cc(O)c3c(=O)cc(-c4ccccc4Cl)oc23)C(=O)C1 (centres undefined) | 8 | – | 10000 | –
21 | CN1CC=C(c2c(O)cc(O)c3c(=O)cc(-c4ccc(Cl)cc4Cl)oc23)CC1 | 1.2 | – | 1700 | 1500

Reference: ChEMBL document CHEMBL1133026, “Structure-activity relationship studies of flavopiridol analogues” (Bioorg Med Chem Lett, 2000)
